Source: patent US12630565B2, “DNA-dependent protein kinase inhibitor” (DIZAL (JIANGSU) PHARMACEUTICAL CO., LTD., priority 2019, dated 2026)

Experiments:
[1] = molecular target: Full length human DNAPK protein (Homo sapiens, UniProt P78527); test: DNA-PK enzymatic assay (TR-FRET); type: biochemical; settings: 10 μM ATP, 1.6 μM peptide substrate
[2] = Metabolic stability assay (human microsomal Clint); type: in vitro ADME; settings: 1 mg/mL microsomes, 1 mM NADPH, 37° C.; for Human liver microsomal CLint: 1 μM compound; for microsomal CLint at 1 μM: human, pooled human liver microsomes, pH 7.4, 1 μM compound
Summary of the method: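 Compound (1 μM) incubated at 37 °C with pooled human liver microsomes (1 mg/mL) and 1 mM NADPH in 100 mM phosphate, pH 7.4. Samples quenched in acetonitrile at 0–30 min and analysed by LC-MS/MS for parent loss. CLint reported in μl/min/mg.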

[3] = test system: MDCKII-MDR1-BCRP cell monolayers; test: MDCKII-MDR1-BCRP efflux assay; type: in vitro ADME; settings: 5 μM compound, 120 min, HBSS pH 7.4
Summary of the method: (§1)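 Bidirectional (A-B, B-A) transport of 5 μM compound across MDCKII-MDR1-BCRP monolayers in HBSS, 25 mM HEPES pH 7.4, ~37° C. for 120 min, triplicate; donor and receiver concentrations measured, monolayer integrity checked with Lucifer yellow. Papp and efflux ratio calculated.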

[4] = test system: Rat hepatocyte; test: Metabolic stability assay (rat hepatocyte Clint); type: in vitro ADME; settings: 1 μM compound, cryopreserved hepatocytes 1 million cells per mL
Summary of the method: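 Compound at 1 μM incubated with cryopreserved rat hepatocytes, 1 million cells/mL, sampled 0–120 min with acetonitrile quench and LC-MS/MS quantitation. CLint (μL/min/E6) derived from elimination rate constant and half-life of parent disappearance, scaled by cell concentration.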

[5] = test system: MDR1, BCRP; test: MDCKII-MDR1-BCRP efflux assay; type: in vitro ADME; settings: dog, pH 7.4, 5 μM compound, HBSS pH 7.4, read-out: MDCK-Mdr1-BCRP efflux ratio
Summary of the method: as §1

SMILES	IC50 [1] [nM]	Human liver microsomal CLint [2] [µL/min/mg]	MDCK-Mdr1-BCRP efflux ratio [3]	Rat hepatocyte CLint (μl/min/10^−6 cells) [4] [μl/min/10^−6 cells]	microsomal CLint at 1 μM [2] [µL/min/mg]	efflux ratio at 120 min, 5 μM [5]
Cc1cc2ncnn2cc1Nc1ncc2c(C)nn(C3CCCOC3)c2n1 (single isomer, unassigned) [Example 30, 3-methyl-N-(7-methyl-[1,2,4]triazolo[1,5-a]pyridin-6-yl)-1-(tetrahydro-2H-pyran-3-yl)-1H-pyrazolo[3,4-d]pyrimidin-6-amine]	15.7	17.7	1.2	4.5		
Cc1cc2ncnn2cc1Nc1ncc2c(C)nn(C3CCOC3)c2n1 (single isomer, unassigned) [Example 49, 3-methyl-N-(7-methyl-[1,2,4]triazolo[1,5-a]pyridin-6-yl)-1-(tetrahydrofuran-3-yl)-1H-pyrazolo[3,4-d]pyrimidin-6-amine]	1.7	8.7	3.4	<1		
Cc1cc2ncnn2cc1Nc1ncc2c(C)nn(CC3CCOC3)c2n1 (single isomer, unassigned) [Example 53, 3-methyl-N-(7-methyl-[1,2,4]triazolo[1,5-a]pyridin-6-yl)-1-((tetrahydrofuran-3-yl)methyl)-1H-pyrazolo[3,4-d]pyrimidin-6-amine]	7.2	15.2	2.4	5.0		
COC1CCC(n2nc(C)c3cnc(Nc4cn5ncnc5cc4C)nc32)C1 (single isomer, unassigned) [Example 109, 1-(3-methoxycyclopentyl)-3-methyl-N-(7-methyl-[1,2,4]triazolo[1,5-a]pyridin-6-yl)-1H-pyrazolo[3,4-d]pyrimidin-6-amine]	4	87.2	2	11.9		
Cc1cc2ncnn2cc1Nc1ncc2c(C)nn(C3CC4(COC4)C3)c2n1 [Example 42, 3-methyl-N-(7-methyl-[1,2,4]triazolo[1,5-a]pyridin-6-yl)-1-(2-oxaspiro[3.3]heptan-6-yl)-1H-pyrazolo[3,4-d]pyrimidin-6-amine]	7.5			34.2	19.5	4.8
Cc1cc2ncnn2cc1Nc1ncc2c(C)nn(C3COC3)c2n1 [Example 44, 3-methyl-N-(7-methyl-[1,2,4]triazolo[1,5-a]pyridin-6-yl)-1-(oxetan-3-yl)-1H-pyrazolo[3,4-d]pyrimidin-6-amine]	24			1.9	8.8	4.3
Cc1cc2ncnn2cc1Nc1ncc2c(C)nn(CC(F)F)c2n1 [Example 57, 1-(2,2-difluoroethyl)-3-methyl-N-(7-methyl-[1,2,4]triazolo[1,5-a]pyridin-6-yl)-1H-pyrazolo[3,4-d]pyrimidin-6-amine]	12.2			4.2	20.9	1.6
Cc1cc2ncnn2cc1Nc1ncc2c(C)nn(C(C)C)c2n1 [Example 59, 1-isopropyl-3-methyl-N-(7-methyl-[1,2,4]triazolo[1,5-a]pyridin-6-yl)-1H-pyrazolo[3,4-d]pyrimidin-6-amine]	4.5			5.5	20.2	0.7
Cc1cc2ncnn2cc1Nc1ncc2c(C)nn(CCC#N)c2n1 [Example 72, 3-(3-methyl-6-((7-methyl-[1,2,4]triazolo[1,5-a]pyridin-6-yl)amino)-1H-pyrazolo[3,4-d]pyrimidin-1-yl)propanenitrile]	1.8			1.0	5.9	7.5
Cc1cc(-c2nn(C)c3cnc(Nc4cn5ncnc5cc4C)nc23)ccn1 [Example 102, 1-methyl-N-(7-methyl-[1,2,4]triazolo[1,5-a]pyridin-6-yl)-3-(2-methylpyridin-4-yl)-1H-pyrazolo[4,3-d]pyrimidin-5-amine]	0.9			32.0	15	14

Continued, values first:

IC50 [1] [nM]	Human liver microsomal CLint [2] [µL/min/mg]	MDCK-Mdr1-BCRP efflux ratio [3]	Rat hepatocyte CLint (μl/min/10^−6 cells) [4] [μl/min/10^−6 cells]	microsomal CLint at 1 μM [2] [µL/min/mg]	efflux ratio at 120 min, 5 μM [5]	SMILES
1.4	51.5	2.1	11.6			Cc1cc2ncnn2cc1Nc1ncc2c(C)nn(C3CCOC(C)C3)c2n1 (single isomer, unassigned) [Example 36, 3-methyl-N-(7-methyl-[1,2,4]triazolo[1,5-a]pyridin-6-yl)-1-(2-methyltetrahydro-2H-pyran-4-yl)-1H-pyrazolo[3,4-d]pyrimidin-6-amine]
12	20.9	1.9	<1			Cc1cc2ncnn2cc1Nc1ncc2c(C)nn(CC3CCCO3)c2n1 (single isomer, unassigned) [Example 51, 3-methyl-N-(7-methyl-[1,2,4]triazolo[1,5-a]pyridin-6-yl)-1-((tetrahydrofuran-2-yl)methyl)-1H-pyrazolo[3,4-d]pyrimidin-6-amine]
3	>300	0.9	42.7			Cc1cc2ncnn2cc1Nc1ncc2c(C)nn(C3CC(C)OC(C)C3)c2n1 (single isomer, unassigned) [Example 86-1, 1-(2,6-dimethyltetrahydro-2H-pyran-4-yl)-3-methyl-N-(7-methyl-[1,2,4]triazolo[1,5-a]pyridin-6-yl)-1H-pyrazolo[3,4-d]pyrimidin-6-amine]
1.4			65.5	216	1.5	Cc1cc2ncnn2cc1Nc1ncc2c(C)nn(C3CC4(C3)CC(F)(F)C4)c2n1 [Example 41, 1-(6,6-difluorospiro[3.3]heptan-2-yl)-3-methyl-N-(7-methyl-[1,2,4]triazolo[1,5-a]pyridin-6-yl)-1H-pyrazolo[3,4-d]pyrimidin-6-amine]
2.2			32.9	70.8	1.9	Cc1cc2ncnn2cc1Nc1ncc2c(C)nn(CCCC(F)(F)F)c2n1 [Example 58, 3-methyl-N-(7-methyl-[1,2,4]triazolo[1,5-a]pyridin-6-yl)-1-(4,4,4-trifluorobutyl)-1H-pyrazolo[3,4-d]pyrimidin-6-amine]
13.5			22.7	20.4	0.7	Cc1cc2nccn2cc1Nc1ncc2c(C)nn(C(C)C)c2n1 [Example 60, 1-isopropyl-3-methyl-N-(7-methylimidazo[1,2-a]pyridin-6-yl)-1H-pyrazolo[3,4-d]pyrimidin-6-amine]
36			5.3	5.5	2.4	COCCn1nc(C)c2cnc(Nc3cn4ncnc4cc3C)nc21 [Example 63, 1-(2-methoxyethyl)-3-methyl-N-(7-methyl-[1,2,4]triazolo[1,5-a]pyridin-6-yl)-1H-pyrazolo[3,4-d]pyrimidin-6-amine]
8			13.3	17.1	2	COCCCn1nc(C)c2cnc(Nc3cn4ncnc4cc3C)nc21 [Example 65, 1-(3-methoxypropyl)-3-methyl-N-(7-methyl-[1,2,4]triazolo[1,5-a]pyridin-6-yl)-1H-pyrazolo[3,4-d]pyrimidin-6-amine]
2			15.3	120	1.9	Cc1cc2ncnn2cc1Nc1ncc2c(C)nn(CCCOC(F)(F)F)c2n1 [Example 66, 3-methyl-N-(7-methyl-[1,2,4]triazolo[1,5-a]pyridin-6-yl)-1-(3-(trifluoromethoxy)propyl)-1H-pyrazolo[3,4-d]pyrimidin-6-amine]
2.1			9.3	23.5	19	Cc1cc2nccn2cc1Nc1ncc2c(C)nn(CC(C)C#N)c2n1 (stereo not drawn) [Example 80, 2-methyl-3-(3-methyl-6-((7-methylimidazo[1,2-a]pyridin-6-yl)amino)-1H-pyrazolo[3,4-d]pyrimidin-1-yl)propanenitrile]
6.2			9.6	10.1	0.8	COc1cc(C)c(Nc2ncc3c(C)nn(C4CCOCC4)c3n2)cn1 [Example 89, N-(6-methoxy-4-methylpyridin-3-yl)-3-methyl-1-(tetrahydro-2H-pyran-4-yl)-1H-pyrazolo[3,4-d]pyrimidin-6-amine]
